Measured values reported in patent US20180016548A1, “ACELLULAR SCAFFOLDS FOR MATURATION OF IPSC-HEPATOCYTES” (Northwestern University, priority 2016, published 2018).

Tested on: CYP1A2
Test: CYP1A2 enzyme activity in iPSC-hepatocytes (Luc-ME luminescence)
Assay type: cell-based, human
Details: in comparison to primary hepatocytes, 5 μM inducer for 48 h
Method: 100 μl of this luciferin medium was added to a 96-well white opaque plate with 100 μl luciferin detection reagent, and the luminescence signal was measured on a Cytation 3 Cell Imaging Multi-Mode Reader (BioTek Inc. Winooski, Vt.). After determining the activity, the amount of cells in each scaffold or sandwich culture was analyzed with Quant-iT™ Pico Green kit following the protocols described above.

Q: For Cc1ccc2cc3c(ccc4ccccc43)c3c2c1CC3 [3-methylcholanthrene], which “induction of CYP1A2 activity” value is on record?
A: Its value is “modest”.
